{
  "source": "patent US20080274882A1",
  "about": "“Insecticides Based on Selected Neonicotinoids and Strobilurins” (Bayer CropScience AG, priority 2004, published 2008)",
  "key": {"Myzus persicae": {"tested_on": "Myzus persicae", "experiment": "Myzus persicae test (cabbage leaf dip)", "assay_type": "in vivo", "details": "for Kill in % after 1 day: Table A1; for Kill in % after 6 days: Table A2"}, "[1]": {"tested_on": "Phaedon cochleariae larvae", "experiment": "Phaedon cochleariae larvae test (cabbage leaf dip)"}},
  "data": [
    {"compound": "CO/C=C(/C(=O)OC)c1ccccc1COc1cccc(C(F)(F)F)n1", "note": "[picoxystrobin]", "values": [
      {"measurement": "Kill in % after 1 day", "setting": "Myzus persicae; 100 ppm", "result": 0, "unit": "%"},
      {"measurement": "Kill in % after 6^d", "setting": "[1]; 100 ppm, Table B1", "result": 0, "unit": "%"}
    ]},
    {"compound": "pyraclostrobin", "values": [
      {"measurement": "Kill in % after 6 days", "setting": "Myzus persicae; 100 ppm", "result": 35, "unit": "%"}
    ]},
    {"compound": "CNC(=O)/C(=N/OC)c1ccccc1COc1cc(C)ccc1C", "note": "[dimoxystrobin]", "values": [
      {"measurement": "Kill in % after 6^d", "setting": "[1]; 20 ppm, Table B2", "result": 0, "unit": "%"}
    ]},
    {"compound": "CN/C(=N\\[N+](=O)[O-])NCc1cnc(Cl)s1", "note": "[clothianidin]", "values": [
      {"measurement": "Kill in % after 1 day", "setting": "Myzus persicae; 0.8 ppm", "result": 40, "unit": "%"},
      {"measurement": "Kill in % after 6 days", "setting": "Myzus persicae; 0.8 ppm", "result": 30, "unit": "%"},
      {"measurement": "Kill in % after 6^d", "setting": "[1]; 4 ppm, Table B1", "result": 20, "unit": "%"},
      {"measurement": "Kill in % after 6^d", "setting": "[1]; 4 ppm, Table B2", "result": 60, "unit": "%"}
    ]}
  ]
}
